# PubChem BioAssay AID1963962 (Molecular Pharmacology Branch, DTP, NCI, 2024)
# System: 967376-340-R-J2-PDC multicell spheroid viability
# Test: Anticancer human tumor 967376-340-R-J2-PDC patient-derived colon adenocarcinoma cell line growth inhibition [PI3K]
# Settings: for IC50: curve of first compound; for viability, T/C: stronger effect = lower value
# In short: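 Three cell types, namely tumor cells, endothelial cells and mesenchymal stem cells, formed each spheroid. Combinations with four PI3K inhibitors were screened at clinically achievable concentrations decreasing by half-log, and spheroid viability was recorded.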
# [1] = second compound 0.00316 µM, first compound 0.0316 µM
# [2] = second compound 0.00316 µM, first compound 0.1 µM
# [3] = second compound 0.00316 µM, first compound 0.316 µM
# [4] = second compound 0.00316 µM, first compound 1 µM
# [5] = second compound 0.00316 µM, first compound 3.16 µM
# [6] = second compound 0.00316 µM, first compound 10 µM
# [7] = second compound 0.01 µM, first compound 0.0316 µM
# [8] = second compound 0.01 µM, first compound 0.1 µM
# [9] = second compound 0.01 µM, first compound 0.316 µM
# [10] = second compound 0.01 µM, first compound 1 µM
# [11] = second compound 0.01 µM, first compound 3.16 µM
# [12] = second compound 0.01 µM, first compound 10 µM
# [13] = second compound 0.0316 µM, first compound 0.0316 µM
# [14] = second compound 0.0316 µM, first compound 0.1 µM
# [15] = second compound 0.0316 µM, first compound 0.316 µM
# [16] = second compound 0.0316 µM, first compound 1 µM
# [17] = second compound 0.0316 µM, first compound 3.16 µM
# [18] = second compound 0.0316 µM, first compound 10 µM
# [19] = second compound 0.1 µM, first compound 0.0316 µM
# [20] = second compound 0.1 µM, first compound 0.1 µM
# [21] = second compound 0.1 µM, first compound 0.316 µM
# [22] = second compound 0.1 µM, first compound 1 µM
# [23] = second compound 0.1 µM, first compound 3.16 µM
# [24] = second compound 0.1 µM, first compound 10 µM
# [25] = second compound 0.316 µM, first compound 0.0316 µM
# [26] = second compound 0.316 µM, first compound 0.1 µM
# [27] = second compound 0.316 µM, first compound 0.316 µM
# [28] = second compound 0.316 µM, first compound 1 µM
# [29] = second compound 0.316 µM, first compound 3.16 µM
# [30] = second compound 0.316 µM, first compound 10 µM
# [31] = second compound 1 µM, first compound 0.0316 µM
# [32] = second compound 1 µM, first compound 0.1 µM
# [33] = second compound 1 µM, first compound 0.316 µM
# [34] = second compound 1 µM, first compound 1 µM
# [35] = second compound 1 µM, first compound 3.16 µM
# [36] = second compound 1 µM, first compound 10 µM
# 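Further: spheroids exposed to agents for 7 days before read-out.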
# 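Wherever viability, T/C is given: luminescence used as surrogate of cell viability.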
structure (smiles),measurement,setting,value
CC(C)NCC(C(=O)N1CCN(c2ncnc3c2C(C)CC3O)CC1)c1ccc(Cl)cc1 (stereo unspecified) + CC(Nc1ccc2c(c1)OCCn1cc(N3C(=O)OCC3C(F)F)nc1-2)C(N)=O,IC50,second compound 0.00316 µM,> 10 µM
same,IC50,second compound 0.01 µM,> 10 µM
same,IC50,second compound 0.0316 µM,> 10 µM
same,IC50,second compound 0.1 µM,> 10 µM
same,IC50,second compound 0.316 µM,> 10 µM
same,IC50,second compound 1 µM,7.61 µM
same,"viability, T/C",[1],98.4%
same,"viability, T/C",[2],118%
same,"viability, T/C",[3],71.2%
same,"viability, T/C",[4],76.8%
same,"viability, T/C",[5],91.9%
same,"viability, T/C",[6],77.9%
same,"viability, T/C",[7],79.3%
same,"viability, T/C",[8],86.5%
same,"viability, T/C",[9],74.4%
same,"viability, T/C",[10],84.7%
same,"viability, T/C",[11],83.4%
same,"viability, T/C",[12],81.2%
same,"viability, T/C",[13],68.5%
same,"viability, T/C",[14],90.4%
same,"viability, T/C",[15],59.4%
same,"viability, T/C",[16],77.1%
same,"viability, T/C",[17],73.5%
same,"viability, T/C",[18],60.9%
same,"viability, T/C",[19],60.1%
same,"viability, T/C",[20],82%
same,"viability, T/C",[21],68.6%
same,"viability, T/C",[22],72.4%
same,"viability, T/C",[23],83.9%
same,"viability, T/C",[24],64%
same,"viability, T/C",[25],57.5%
same,"viability, T/C",[26],60.7%
same,"viability, T/C",[27],57.6%
same,"viability, T/C",[28],65.5%
same,"viability, T/C",[29],57.8%
same,"viability, T/C",[30],62.8%
same,"viability, T/C",[31],51.4%
same,"viability, T/C",[32],59.2%
same,"viability, T/C",[33],67.6%
same,"viability, T/C",[34],60.8%
same,"viability, T/C",[35],57.3%
same,"viability, T/C",[36],37.2%
CC1(C)CCC(Nc2ncc(C(F)(F)F)c(-c3c[nH]c4c(P(C)(C)=O)c(C#N)ccc34)n2)CN1 (stereo unspecified) + COc1c(OCCCN2CCOCC2)ccc2c3n(c(=NC(=O)c4cnc(N)nc4)nc12)CCN3,IC50,second compound 0.00316 µM,> 10 µM
same,IC50,second compound 0.01 µM,9.47 µM
same,IC50,second compound 0.0316 µM,3.06 µM
same,IC50,second compound 0.1 µM,0.196 µM
same,IC50,second compound 0.316 µM,< 0.0316 µM
same,IC50,second compound 1 µM,< 0.0316 µM
same,"viability, T/C",[1],84.5%
same,"viability, T/C",[2],81.8%
same,"viability, T/C",[3],80.2%
same,"viability, T/C",[4],80%
same,"viability, T/C",[5],66.2%
same,"viability, T/C",[6],59.6%
same,"viability, T/C",[7],79.7%
same,"viability, T/C",[8],77.4%
same,"viability, T/C",[9],75.2%
same,"viability, T/C",[10],75.5%
same,"viability, T/C",[11],61.9%
same,"viability, T/C",[12],49.4%
same,"viability, T/C",[13],69.9%
same,"viability, T/C",[14],84%
same,"viability, T/C",[15],73.8%
same,"viability, T/C",[16],66.5%
same,"viability, T/C",[17],49.4%
same,"viability, T/C",[18],45.9%
same,"viability, T/C",[19],72.3%
same,"viability, T/C",[20],47.6%
same,"viability, T/C",[21],54.1%
same,"viability, T/C",[22],45.5%
same,"viability, T/C",[23],43.7%
same,"viability, T/C",[24],36.5%
same,"viability, T/C",[25],49.4%
same,"viability, T/C",[26],45%
same,"viability, T/C",[27],37.3%
same,"viability, T/C",[28],38.4%
same,"viability, T/C",[29],36.6%
same,"viability, T/C",[30],22.3%
same,"viability, T/C",[31],32%
same,"viability, T/C",[32],27.4%
same,"viability, T/C",[33],34%
same,"viability, T/C",[34],30.7%
same,"viability, T/C",[35],27.1%
same,"viability, T/C",[36],20.9%
CC(=O)c1c(C)c2cnc(Nc3ccc(N4CCNCC4)cn3)nc2n(C2CCCC2)c1=O + CC(Nc1ncnc2nc[nH]c12)c1cc2cccc(Cl)c2c(=O)n1-c1ccccc1,IC50,second compound 0.0316 µM,> 0.1 µM
same,IC50,second compound 0.1 µM,> 0.1 µM
same,IC50,second compound 0.316 µM,> 0.1 µM
same,IC50,second compound 1 µM,> 0.1 µM
same,IC50,second compound 3.16 µM,> 0.1 µM
same,IC50,second compound 10 µM,> 0.1 µM
same,"viability, T/C","second compound 0.0316 µM, first compound 0.000316 µM",81.1%
same,"viability, T/C","second compound 0.0316 µM, first compound 0.001 µM",101%
same,"viability, T/C","second compound 0.0316 µM, first compound 0.00316 µM",92.2%
same,"viability, T/C","second compound 0.0316 µM, first compound 0.01 µM",92.7%
same,"viability, T/C",[13],79.9%
same,"viability, T/C",[14],82.6%
same,"viability, T/C","second compound 0.1 µM, first compound 0.000316 µM",114%
same,"viability, T/C","second compound 0.1 µM, first compound 0.001 µM",89.4%
same,"viability, T/C","second compound 0.1 µM, first compound 0.00316 µM",101%
same,"viability, T/C","second compound 0.1 µM, first compound 0.01 µM",89.4%
same,"viability, T/C",[19],84.4%
same,"viability, T/C",[20],83.8%
same,"viability, T/C","second compound 0.316 µM, first compound 0.000316 µM",101%
same,"viability, T/C","second compound 0.316 µM, first compound 0.001 µM",96%
same,"viability, T/C","second compound 0.316 µM, first compound 0.00316 µM",113%
same,"viability, T/C","second compound 0.316 µM, first compound 0.01 µM",97%
same,"viability, T/C",[25],79.3%
same,"viability, T/C",[26],78.6%
same,"viability, T/C","second compound 1 µM, first compound 0.000316 µM",90%
same,"viability, T/C","second compound 1 µM, first compound 0.001 µM",103%
same,"viability, T/C","second compound 1 µM, first compound 0.00316 µM",91%
same,"viability, T/C","second compound 1 µM, first compound 0.01 µM",80.3%
same,"viability, T/C",[31],98.6%
same,"viability, T/C",[32],88.2%
same,"viability, T/C","second compound 3.16 µM, first compound 0.000316 µM",89.6%
same,"viability, T/C","second compound 3.16 µM, first compound 0.001 µM",109%
same,"viability, T/C","second compound 3.16 µM, first compound 0.00316 µM",95.1%
same,"viability, T/C","second compound 3.16 µM, first compound 0.01 µM",90.3%
same,"viability, T/C","second compound 3.16 µM, first compound 0.0316 µM",84.1%
same,"viability, T/C","second compound 3.16 µM, first compound 0.1 µM",63.9%
same,"viability, T/C","second compound 10 µM, first compound 0.000316 µM",83.5%
same,"viability, T/C","second compound 10 µM, first compound 0.001 µM",89.5%
same,"viability, T/C","second compound 10 µM, first compound 0.00316 µM",81.3%
same,"viability, T/C","second compound 10 µM, first compound 0.01 µM",88%
same,"viability, T/C","second compound 10 µM, first compound 0.0316 µM",87.5%
same,"viability, T/C","second compound 10 µM, first compound 0.1 µM",86.9%
